According to US11813230B2, “Composition for strengthening skin barrier, moisturizing skin or anti-aging” (COSMAX, INC., priority 2020, dated 2023):

Columns and labels:
Details in all cases: 37° C., 48 up to 72 hours, well color change
S. pneumoniae (CX-2) = format: cell-based, Streptococcus pneumoniae
Experimental: (§1) To analyze substance utilization by the isolated strains (Streptococcus pneumoniae, Streptococcus infantis, and Streptococcus mitis), tests were conducted in the following manner. BioLOG GP2 and API 50 were used in determining the substance utilization, and testing was performed using testing methods provided by Omnilog and Biomeriuse. The culturing temperature and media suitable to corresponding strains were selected, and 5 among cluster colonies incubated for 48 hours were taken and suspended in reagents before use. The inoculation amount was 150 μl. As the suspension, components of kits provided by various manufacturers were used. When the strains are yet to be inoculated, the suspension is in a transparent liquid phase. Inoculated plates and strips were incubated at 37° C. for 48 hours, and then the incubation of up to 72 hours was examined. Wells were in a transparent liquid phase at the time of inoculating, but the colors of the wells changed to purple or red, and the color-changed wells were determined to be positive.

S. mitis (CX-8) = assay: Substance utilization (BioLOG GP2 / API 50); format: cell-based, Streptococcus mitis
Experimental: as §1

S. infantis (CX-4) = assay: Substance utilization (BioLOG GP2 / API 50); format: cell-based, Streptococcus infantis
Experimental: as §1

Row | Compound | substance utilization by S. pneumoniae (CX-2) (S. pneumoniae (CX-2)) | substance utilization by S. mitis (CX-8) (S. mitis (CX-8)) | substance utilization by S. infantis (CX-4) (S. infantis (CX-4))
1 | D-Turanose | + | – | –
2 | OC[C@H]1O[C@H](O[C@H]2[C@H](O)[C@@H](O)[C@H](O)O[C@@H]2CO)[C@H](O)[C@@H](O)[C@@H]1O [D-maltose] | + | + | +
3 | O=C1O[C@H]([C@@H](O)CO)[C@@H](O)[C@@H]1O [L-Galactonic Acid Lactone] | – | + | –
4 | OC[C@H]1O[C@H](OCC2O[C@@H](O)[C@H](O)[C@@H](O)[C@@H]2O)[C@H](O)[C@@H](O)[C@H]1O (stereo partly drawn) [D-Melibiose] | + | – | –
5 | D-Salicin | – | + | –
6 | OC[C@H]1O[C@@H](O[C@H]2[C@H](O)[C@@H](O)[C@H](O)O[C@@H]2CO)[C@H](O)[C@@H](O)[C@@H]1O [D-Cellobiose] | + | + | +
7 | OC[C@H]1O[C@H](OC[C@H]2O[C@H](OC[C@H]3O[C@H](O[C@]4(CO)O[C@H](CO)[C@@H](O)[C@@H]4O)[C@H](O)[C@@H](O)[C@@H]3O)[C@H](O)[C@@H](O)[C@H]2O)[C@H](O)[C@@H](O)[C@H]1O [Stachyose] | + | + | +
8 | Dextrin | + | + | +
9 | [Cl-].[Na+] [1% NaCl, NaCl] | + | + | +
10 | Tween 40 | + | – | +
11 | CO[C@H]1/C=C/O[C@@]2(C)Oc3c(C)c([O-])c4c(O)c(cc(O)c4c3C2=O)NC(=O)/C(C)=C\C=C\[C@H](C)[C@H](O)[C@@H](C)[C@@H](O)[C@@H](C)[C@H](OC(C)=O)[C@@H]1C.[Na+] [Rifamycin SV] | – | + | +
12 | O=[Te]([O-])[O-].[K+].[K+] [Potassium Tellurite] | + | + | +
13 | OC[C@H]1O[C@H](OC[C@H]2O[C@H](O[C@]3(CO)O[C@H](CO)[C@@H](O)[C@@H]3O)[C@H](O)[C@@H](O)[C@@H]2O)[C@H](O)[C@@H](O)[C@H]1O [D-Raffinose] | + | – | –
14 | O=P(O)(O)OC[C@H]1OC(O)(CO)[C@@H](O)[C@@H]1O (stereo partly drawn) [D-Fructose-6-Po4] | – | + | –
15 | [Cl-].[Li+] [Lithium Chloride] | – | + | –
16 | COc1cc(-c2ccc(-n3nc(-c4ccccc4)n[n+]3-c3ccccc3)c(OC)c2)ccc1-n1nc(-c2ccccc2)n[n+]1-c1ccccc1.[Cl-].[Cl-] [Tetrazolium Blue] | – | + | +
17 | Pectin | + | + | +
18 | CC(O)C(=O)[O-].[Na+] (stereo not shown) [1% Sodium Lactate, Sodium Lactate] | + | + | +
